For assay [1], the system named is 3T3-F442A cells. The assay can be described thus: MTT cell viability assay, 3T3-F442A pre-adipocytes. It counts as cell-based, murine. To be noted: pure compounds, MTT, read-out: IC50 3T3-F442A. The procedure:
(§1) Cellular viability was determined by the MTT (methylthiazolyldiphenyl-tetrazolium bromide) assay. Briefly, cells were exposed to the indicated concentrations of crude extracts or compounds 1–4 for five doubling times and then incubated for 3 h at 37 °C with MTT. Formazan crystals were then dissolved in DMSO and optical density measured at 570 nm in a microplate reader. The half-maximal inhibitory concentration (IC50) was determined. Values given for crude extracts are averages of at least two experiments done in duplicate. IC50 values calculated for the four isolated compounds and the commercially available 4-hydroxy-tamoxifen (Sigma-Aldrich) are averages of at least three experiments done in duplicate.
A general note: Tetrazolium assays rely on reduction of a dye to a coloured formazan, in cell work by metabolically active cells.

The test system of assay [2] is MCF7-Sh-WISP2 cells. The assay can be described thus: MTT cell viability assay, MCF7-Sh-WISP2. It counts as cell-based, human. To be noted: pure compounds, MTT, read-out: IC50 MCF7-Sh-WISP2. The procedure: as §1
The test system of assay [3] is MCF7 cells. The assay can be described thus: MTT cell viability assay, MCF7. It counts as cell-based, human. To be noted: MTT, read-out: IC50 MCF7. The procedure:
as §1

Assay [4] relates to Plasmodium falciparum (chloroquine-resistant FcB1/Colombia strain). The experiment in a line: Anti-plasmodial assay ([3H]hypoxanthine incorporation). It counts as cell-based. To be noted: data not shown, read-out: IC50 against Plasmodium falciparum. The procedure: Supplementary materials and methods.
The fungus was isolated in January 2012 as an endophyte from the holdfast of P. caniculata harvested in Roscoff (Britany, France). Both morphological assessment and internal transcribed spacer (ITS) sequencing were performed to identify it as Paradendryphiella salina. It is now maintained at the MCAM culture collection (Muséum National d’Histoire Naturelle, Paris) under the number PC 362H.
The anti-plasmodial activity was evaluated against the chloroquine-resistant FcB1/Colombia strain of Plasmodium falciparum. The assay was performed using the method of Desjardins (Desjardins et al., 1979). Extracts and pure compounds were diluted in Dimethyl Sulfoxyde (DMSO) and added to the culture medium (final concentration: 20 µg/mL) in 96-well microplates. Asynchronous parasite cultures were then added (1 % parasitemia and 1 % final hematocrite), and plates were maintained for 24 hours at 37 °C in a candle jar. […] After a cycle of freezing and thawing, the cells were harvested from each well onto glass fiber filters, and the dried filters were counted in a scintillation counter. The growth inhibition for each well was determined by comparison of the radioactivity incorporated into the treated culture with that in the control culture maintained on the same plate. […]

Where [5] appears, read: Homo sapiens, MCF7, pure compounds.

“And” between values parts separate entries of the source, which are not always exact repeats. Equal values may be shown once. Read-outs that look alike come from different tables or passages of the source.

A word on the IC50: it is the concentration that gives 50% inhibition. “4-hydroxy-tamoxifen [Hydroxi Tamoxifen, reference compound]”: the values for the IC50 in assay [1], in assay [2] and in assay [3] (pure compounds) were 14.5 µM, 11.6 µM and 8.8 µM, respectively.

For the molecule `COC(=O)CNC(=O)CC[C@@H](C)[C@H]1CC[C@H]2[C@H]3C(C[C@H](O)[C@]12C)[C@@]1(C)CC[C@@H](O)C[C@H]1C[C@H]3O` (stereo partly shown) [Compound 2, glycocholic acid methyl ester], the IC50 is > 25 µg/mL and > 50 µM in assay [1] (Mus musculus); > 25 µg/mL and > 50 µM in assay [2] (Homo sapiens); > 25 µg/mL and > 50 µM in assay [3] (setting [5]); 20.5 ± 3.5 µM in assay [4].

In the case of `CS[C@]1(CO)C(=O)N(C)[C@](Cc2ccccc2)(SC)C(=O)N1C` [Compound 4, (3R, 6R) bisdethiodi(methylthio)hyalodendrin], the IC50 in assay [1] (Mus musculus) was 92 µg/mL and 26 µM; in assay [2] (Homo sapiens), 24 µg/mL and 68 µM; in assay [3] (setting [5]), 15 µg/mL and 42 µM.

Turning to `C[C@H](C(=O)O)[C@H]1CC[C@@]2(C)C3=C(C[C@@H](O)[C@]12C)[C@@]1(C)CC[C@H](O)C(C)(C)C1CC3` (relative stereo) [Compound 1, Dendryphiellide A], the IC50 in assay [1] (Mus musculus) was more than 25 µg/mL; in assay [1], more than 60 µM; in assay [2] (Homo sapiens), more than 25 µg/mL; in assay [2], more than 60 µM; in assay [3] (setting [5]), 20 µg/mL; in assay [4] it was 65 ± 4.2 µM.

Values taken from publication PMC7230232, “Secondary Metabolites from the Culture of the Marine-derived Fungus Paradendryphiella salina PC 362H and Evaluation of the Anticancer Activity of Its Metabolite Hyalodendrin” (Marine Drugs, 2020).
